Measured values published in paper PMC9848300, “Discovery of novel enasidenib analogues targeting inhibition of mutant isocitrate dehydrogenase 2 as antileukaemic agents” (Journal of Enzyme Inhibition and Medicinal Chemistry, 2023).

Experiments:
[1] = system: HOP-92; assay: NCI 60 antitumor screening (single dose / five doses); format: cell-based; details: Homo sapiens; for inhibition at 10 µM: HOP-92 (non-small cell lung cancer), single dose 10 μM, read-out: Growth inhibition percentage (GI %)
[2] = system: UACC-257; assay: as above; format: cell-based; details: Homo sapiens; for inhibition at 10 µM: UACC-257 (melanoma), single dose 10 μM, read-out: Growth inhibition percentage (GI %)
[3] = system: RXF 393; assay: as above; format: cell-based; details: Homo sapiens; for inhibition at 10 µM: RXF 393 (renal cancer), single dose 10 μM, read-out: Growth inhibition percentage (GI %)
[4] = system: SF-268; assay: NCI 60 antitumor screening (single dose); format: cell-based; details: Homo sapiens; SF-268 (CNS cancer), single dose 10 μM; read-out: Growth inhibition percentage (GI %)
Method in brief: (§1)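 The panel mean likewise comes from single-dose (10 μM) NCI 60-line testing, with inhibition expressed as 100 − G%.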

[5] = system: MCF7; assay: NCI 60 antitumor screening (single dose); format: cell-based; details: Homo sapiens; MCF7 (breast cancer), single dose 10 μM; read-out: Growth inhibition percentage (GI %)
Method in brief: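 Assessment used the first tier of the NCI 60 screen, one dose of 10 μM per compound. Triplicate experiments gave percent growth of treated cells. Inhibition was then derived as 100 − G%.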

[6] = system: K-562; assay: NCI 60 antitumor screening (single dose / five doses); format: cell-based; details: Homo sapiens, K562; for inhibition at 10 µM: K-562 (leukaemia), single dose 10 μM, read-out: Growth inhibition percentage (GI %)
[7] = system: SF-539; assay: as above; format: cell-based; details: Homo sapiens; for inhibition at 10 µM: SF-539 (CNS cancer), single dose 10 μM, read-out: Growth inhibition percentage (GI %)
[8] = system: IGROV1; assay: as above; format: cell-based; details: Homo sapiens, IGROV-1; for inhibition at 10 µM: IGROV1 (ovarian cancer), single dose 10 μM, read-out: Growth inhibition percentage (GI %)
[9] = system: SK-MEL-28; assay: as above; format: cell-based; details: Homo sapiens; for inhibition at 10 µM: SK-MEL-28 (melanoma), single dose 10 μM, read-out: Growth inhibition percentage (GI %)
[10] = system: UO-31; assay: as above; format: cell-based; details: Homo sapiens; for inhibition at 10 µM: UO-31 (renal cancer), single dose 10 μM, read-out: Growth inhibition percentage (GI %)
[11] = system: SN 12C; assay: as above; format: cell-based; details: Homo sapiens, SN12C; for inhibition at 10 µM: SN 12C (renal cancer), single dose 10 μM, read-out: Growth inhibition percentage (GI %)
[12] = system: T-47D; assay: as above; format: cell-based; details: Homo sapiens, T47D; for inhibition at 10 µM: T-47D (breast cancer), single dose 10 μM, read-out: Growth inhibition percentage (GI %)
[13] = system: A498; assay: as above; format: cell-based; details: Homo sapiens
[14] = system: SNB-75; assay: as above; format: cell-based; details: Homo sapiens; for inhibition at 10 µM: SNB-75 (CNS cancer), single dose 10 μM, read-out: Growth inhibition percentage (GI %)
[15] = system: LOX IMVI; assay: as above; format: cell-based; details: Homo sapiens; for inhibition at 10 µM: LOX IMVI (melanoma), single dose 10 μM, read-out: Growth inhibition percentage (GI %)
[16] = system: BT-549; assay: as above; format: cell-based; details: Homo sapiens; for inhibition at 10 µM: BT-549 (breast cancer), single dose 10 μM, read-out: Growth inhibition percentage (GI %)
[17] = system: DU-145; assay: as above; format: cell-based; details: Homo sapiens; for inhibition at 10 µM: DU-145 (prostate cancer), single dose 10 μM, read-out: Growth inhibition percentage (GI %)
[18] = system: ACHN; assay: as above; format: cell-based; details: Homo sapiens; for inhibition at 10 µM: ACHN (renal cancer), single dose 10 μM, read-out: Growth inhibition percentage (GI %)
[19] = system: SK-MEL-2; assay: as above; format: cell-based; details: Homo sapiens; for inhibition at 10 µM: SK-MEL-2 (melanoma), single dose 10 μM, read-out: Growth inhibition percentage (GI %)
[20] = system: HT29; assay: as above; format: cell-based, human; details: Homo sapiens; for inhibition at 10 µM: HT-29, HT29 (colon cancer), single dose 10 μM, read-out: Growth inhibition percentage (GI %)
[21] = system: COLO 205; assay: as above; format: cell-based; details: Homo sapiens; for inhibition at 10 µM: COLO 205 (colon cancer), single dose 10 μM, read-out: Growth inhibition percentage (GI %)
[22] = system: MDA-MB-435; assay: as above; format: cell-based; details: Homo sapiens; for inhibition at 10 µM: MDA-MB-435 (melanoma), single dose 10 μM, read-out: Growth inhibition percentage (GI %)
[23] = system: UACC-62; assay: as above; format: cell-based; details: Homo sapiens; for inhibition at 10 µM: UACC-62 (melanoma), single dose 10 μM, read-out: Growth inhibition percentage (GI %)
[24] = system: HL-60(TB); assay: as above; format: cell-based; details: Homo sapiens; for inhibition at 10 µM: HL-60(TB) (leukaemia), single dose 10 μM, read-out: Growth inhibition percentage (GI %)
[25] = system: HCT-116; assay: as above; format: cell-based; details: Homo sapiens; for inhibition at 10 µM: HCT-116 (colon cancer), single dose 10 μM, read-out: Growth inhibition percentage (GI %)
[26] = system: 60 human subpanel cancer cell lines; assay: NCI 60 antitumor screening, mean over the panel (single dose); format: cell-based; details: mean over 60 cancer cell lines, single dose 10 μM
Method in brief: as §1

[27] = system: MDA-MB-231/ATCC; assay: NCI 60 antitumor screening (single dose / five doses); format: cell-based; details: Homo sapiens; for inhibition at 10 µM: MDA-MB-231/ATCC (breast cancer), single dose 10 μM, read-out: Growth inhibition percentage (GI %)
[28] = system: HCT-15; assay: as above; format: cell-based; details: Homo sapiens; for inhibition at 10 µM: HCT-15 (colon cancer), single dose 10 μM, read-out: Growth inhibition percentage (GI %)
[29] = system: 786-0; assay: as above; format: cell-based; details: Homo sapiens; for inhibition at 10 µM: 786-0, 786-0 (renal cancer), single dose 10 μM, read-out: Growth inhibition percentage (GI %)

Work on `Oc1ccccc1/C=N/Nc1nc(N/N=C/c2ccccc2O)nc(N2CCOCC2)n1` [compound 6a, 2-[(1e)-(2-{4-[(E)-2-[(2-Hydroxyphenyl)methylidene]hydrazin-1-yl]-6-(morpholin-4-yl)-1,3,5-triazin-2-yl}hydrazin-1-ylidene)methyl]phenol] yielded an inhibition at 10 µM [1] of 87.2%, a GI50 ([1]; HOP-92, five doses (0.01–100 μM), read-out: GI50) of 1650 nM and an inhibition at 10 µM [2] of 46.7%. The GI50 ([2]; UACC-257, five doses (0.01–100 μM), read-out: GI50) was 6530 nM, the inhibition at 10 µM [3] was 101% and the GI50 ([3]; RXF 393, five doses (0.01–100 μM), read-out: GI50) was 270 nM. The inhibition at 10 µM [4] was 27.7%, the inhibition at 10 µM [5] was 60% and the inhibition at 10 µM [6] was 74.6%. For the same molecule, the GI50 ([6]; K-562, five doses (0.01–100 μM), read-out: GI50) was 680 nM, the inhibition at 10 µM [7] was 48.2% and the GI50 ([7]; SF-539, five doses (0.01–100 μM), read-out: GI50) was 7290 nM. The inhibition at 10 µM [8] was 63%, the GI50 ([8]; IGROV1, five doses (0.01–100 μM), read-out: GI50) was 970 nM and the inhibition at 10 µM [9] was 72%. For the same molecule, the GI50 ([9]; SK-MEL-28, five doses (0.01–100 μM), read-out: GI50) was 3200 nM, the inhibition at 10 µM [10] was 80.2% and the GI50 ([10]; UO-31, five doses (0.01–100 μM), read-out: GI50) was 370 nM. For the same molecule, the inhibition at 10 µM [11] was 72.8%, the GI50 ([11]; SN 12C, five doses (0.01–100 μM), read-out: GI50) was 18300 nM and the inhibition at 10 µM [12] was 53.9%. It also gave a GI50 ([12]; T-47D, five doses (0.01–100 μM), read-out: GI50) of 3340 nM, a GI50 ([13]; A498, five doses (0.01–100 μM), read-out: GI50) of 1090 nM and an inhibition at 10 µM [14] of 104%. It also gave a GI50 ([14]; SNB-75, five doses (0.01–100 μM), read-out: GI50) of 1820 nM, an inhibition at 10 µM [15] of 96% and a GI50 ([15]; LOX IMVI, five doses (0.01–100 μM), read-out: GI50) of 280 nM. The inhibition at 10 µM [16] was 23.7%, the GI50 ([16]; BT-549, five doses (0.01–100 μM), read-out: GI50) was 5190 nM and the inhibition at 10 µM [17] was 64.5%. For the same molecule, the GI50 ([17]; DU-145, five doses (0.01–100 μM), read-out: GI50) was 6090 nM, the inhibition at 10 µM [18] was 71.9% and the GI50 ([18]; ACHN, five doses (0.01–100 μM), read-out: GI50) was 1580 nM. For the same molecule, the inhibition at 10 µM [19] was 28%, the GI50 ([19]; SK-MEL-2, five doses (0.01–100 μM)) was 6060 nM and the GI50 ([20]; HT-29, HT29, five doses (0.01–100 μM), read-out: GI50) was 5890 nM. For the same molecule, the inhibition at 10 µM [20] was 65.8%, the inhibition at 10 µM [21] was 52% and the GI50 ([21]; COLO 205, five doses (0.01–100 μM), read-out: GI50) was 5530 nM. For the same molecule, the inhibition at 10 µM [22] was 41.1%, the GI50 ([22]; MDA-MB-435, five doses (0.01–100 μM), read-out: GI50) was 9530 nM and the inhibition at 10 µM [23] was 11.2%. The GI50 ([23]; UACC-62, five doses (0.01–100 μM), read-out: GI50) was 2450 nM, the inhibition at 10 µM [24] was 96.3% and the GI50 ([24]; HL-60(TB), five doses (0.01–100 μM), read-out: GI50) was 190 nM. The inhibition at 10 µM [25] was 80.8%, the GI50 ([25]; HCT-116, five doses (0.01–100 μM), read-out: GI50) was 820 nM and the “Mean GI %” value [26] was 66.07%. It also gave a GI50 ([27]; MDA-MB-231/ ATCC, five doses (0.01–100 μM), read-out: GI50) of 2420 nM, an inhibition at 10 µM [27] of 63.7% and an inhibition at 10 µM [28] of 96.1%. The GI50 ([28]; HCT-15, five doses (0.01–100 μM), read-out: GI50) was 240 nM, the inhibition at 10 µM [29] was 69.7% and the GI50 ([29]; 786-0, five doses (0.01–100 μM), read-out: GI50) was 710 nM.

`Brc1ccccc1/C=N/Nc1nc(N/N=C/c2ccccc2Br)nc(N2CCOCC2)n1` [compound 6b, 2,4-Bis[(E)-2-[(2-bromophenyl)methylidene]hydrazin-1-yl]-6-(morpholin-4-yl)-1,3,5-triazine] was tested, and the inhibition at 10 µM [1] was -12.3%, the inhibition at 10 µM [2] was -3.93% and the inhibition at 10 µM [3] was 30.4%. For the same molecule, the inhibition at 10 µM [4] was -2.5%, the inhibition at 10 µM [5] was 14.8% and the inhibition at 10 µM [6] was 5.94%. For the same molecule, the inhibition at 10 µM [7] was -4.64%, the inhibition at 10 µM [8] was 10.3% and the inhibition at 10 µM [9] was 0.72%. It also gave an inhibition at 10 µM [10] of 21.4%, an inhibition at 10 µM [11] of 1.16% and an inhibition at 10 µM [12] of 21%. It also gave an inhibition at 10 µM ([13]; A498 (renal cancer), single dose 10 μM, read-out: Growth inhibition percentage (GI %)) of 49.8%, an inhibition at 10 µM [14] of -31.7% and an inhibition at 10 µM [15] of -2.7%. It also gave an inhibition at 10 µM [16] of -6.54%, an inhibition at 10 µM [17] of 1.72% and an inhibition at 10 µM [18] of 6.36%. It also gave an inhibition at 10 µM [19] of 3.71%, an inhibition at 10 µM [20] of 26% and an inhibition at 10 µM [21] of 13.9%. For the same molecule, the inhibition at 10 µM [22] was 2.29%, the inhibition at 10 µM [23] was -2.17% and the inhibition at 10 µM [24] was 19.5%. For the same molecule, the inhibition at 10 µM [25] was 2.53%, the “Mean GI %” value [26] was 7.16% and the inhibition at 10 µM [27] was -3.3%. The inhibition at 10 µM [28] was 18.9% and the inhibition at 10 µM [29] was 38.7%.
